These compounds were tested against T1, FXR (Homo sapiens, UniProt Q96RI1) (assay: FXR antagonist screening by TR-FRET (LanthaScreen TR-FRET FXR co-activation assay kit)). Settings: Table 1.2, FXR antagonistic activity; TR-FRET with CDCA; geometric means of at least two independent runs.
T1 construct: 5 μL of 20 nM FXR-LBD Complete Coregulator buffer G; purchased ThermoFisher PV4833
T1 sequence (Q96RI1 262-486 limits assumed): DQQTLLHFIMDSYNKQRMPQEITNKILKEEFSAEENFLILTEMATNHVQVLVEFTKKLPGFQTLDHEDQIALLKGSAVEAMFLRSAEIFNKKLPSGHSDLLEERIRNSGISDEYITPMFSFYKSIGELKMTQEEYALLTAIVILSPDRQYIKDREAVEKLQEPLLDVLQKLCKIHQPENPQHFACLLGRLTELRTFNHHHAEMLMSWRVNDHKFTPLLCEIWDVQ
Type: biochemical
Outline: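 FXR-LBD (20 nM working solution) mixed with compound, CDCA (200 μM working solution) as agonist, Fluorescein-SRC2-2 and Tb-anti-GST antibody in Coregulator buffer G; 10 h at room temperature. Coactivator recruitment read by TR-FRET, triplicate wells.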
With `CCOC(=O)c1oc2ccc(S(=O)(=O)N(CCc3ccccc3)c3ccccc3N3CCN(C(=O)c4ccc(Br)s4)CC3)cc2c1C` [Example M10-123, Ethyl 5-(N-(2-(4-(5-bromothiophene-2-carbonyl)piperazin-1-yl)phenyl)-N-phenethylsulfamoyl)-3-methylbenzofuran-2-carboxylate] the IC50 was 50 to 100 µM.
For `CCOC(=O)c1oc2ccc(S(=O)(=O)N(CCc3ccccc3)c3ccccc3N3CCN(C(=O)c4ccc[nH]4)CC3)cc2c1C` [Example M10-124, Ethyl 5-(N-(2-(4-(1H-pyrrole-2-carbonyl)piperazin-1-yl)phenyl)-N-phenethylsulfamoyl)-3-methylbenzofuran-2-carboxylate], the IC50 was 50 to 100 µM.
With `CCOC(=O)c1oc2ccc(S(=O)(=O)N(CCc3ccccc3)c3ccccc3N3CCN(C(=O)c4sccc4Br)CC3)cc2c1C` [Example M10-125, ethyl 5-(N-(2-(4-(3-bromothiophene-2-carbonyl)piperazin-1-yl)phenyl)-N-phenethylsulfamoyl)-3-methylbenzofuran-2-carboxylate] the IC50 was 50 to 100 µM.
In the case of `CCOC(=O)c1oc2ccc(S(=O)(=O)N(CCc3ccccc3)c3ccccc3N3CCN(C(=O)c4sccc4Cl)CC3)cc2c1C` [Example M10-126, Ethyl 5-(N-(2-(4-(3-chlorothiophene-2-carbonyl)piperazin-1-yl)phenyl)-N-phenethylsulfamoyl)-3-methylbenzofuran-2-carboxylate], the IC50 is reported as 50 to 100 µM.
With `CCOC(=O)c1oc2ccc(S(=O)(=O)N(CCc3ccccc3)c3ccccc3N3CCN(C(=O)c4cc(Br)cs4)CC3)cc2c1C` [Example M10-127, Ethyl 5-(N-(2-(4-(4-bromothiophene-2-carbonyl)piperazin-1-yl)phenyl)-N-phenethylsulfamoyl)-3-methylbenzofuran-2-carboxylate] the IC50 was 50 to 100 µM.
Work on `CCOC(=O)c1oc2ccc(S(=O)(=O)N(CCc3ccccc3)c3ccccc3N3CCN(C(=O)c4ccc(Cl)s4)CC3)cc2c1C` [Example M10-128, Ethyl 5-(N-(2-(4-(5-chlorothiophene-2-carbonyl)piperazin-1-yl)phenyl)-N-phenethylsulfamoyl)-3-methylbenzofuran-2-carboxylate] yielded an IC50 of 50 to 100 µM.
Work on `CCOC(=O)c1oc2ccc(S(=O)(=O)N(CCc3ccccc3)c3ccccc3N3CCN(C(=O)c4cncs4)CC3)cc2c1C` [Example M10-129, Ethyl 3-methyl-5-(N-phenethyl-N-(2-(4-(thiazole-5-carbonyl)piperazin-1-yl)phenyl)sulfamoyl)benzofuran-2-carboxylate] yielded an IC50 of 50 to 100 µM.
For `CCOC(=O)c1oc2ccc(S(=O)(=O)N(CCc3ccccc3)c3ccccc3N3CCN(C(=O)c4cc[nH]n4)CC3)cc2c1C` [Example M10-130, Ethyl 5-(N-(2-(4-(1H-pyrazole-3-carbonyl)piperazin-1-yl)phenyl)-N-phenethylsulfamoyl)-3-methylbenzofuran-2-carboxylate], the IC50 was 50 to 100 µM.
Work on `CCOC(=O)c1oc2ccc(S(=O)(=O)N(CCc3ccccc3)c3ccccc3N3CCN(C(=O)c4cnco4)CC3)cc2c1C` [Example M10-131, Ethyl 3-methyl-5-(N-(2-(4-(oxazole-5-carbonyl)piperazin-1-yl)phenyl)-N-phenethylsulfamoyl)benzofuran-2-carboxylate] yielded an IC50 of 50 to 100 µM.
In the case of `CCOC(=O)c1oc2ccc(S(=O)(=O)N(CCc3ccccc3)c3ccccc3N3CCN(C(=O)c4ccc(C)c(C)c4)CC3)cc2c1C` [Example M10-132, Ethyl 5-(N-(2-(4-(3,4-Dimethylbenzoyl)piperazin-1-yl)phenyl)-N-phenethylsulfamoyl) 3-methylbenzofuran-2-carboxylate], the IC50 is reported as 50 to 100 µM.
`CCOC(=O)c1oc2ccc(S(=O)(=O)N(CCc3ccccc3)c3ccccc3N3CCN(C(=O)c4c(OC)cccc4OC)CC3)cc2c1C` [Example M10-133, Ethyl 5-(N-(2-(4-(2,6-Dimethoxybenzoyl)piperazin-1-yl)phenyl)-N-phenethylsulfamoyl)3-methylbenzofuran-2-carboxylate] showed an IC50 of 50 to 100 µM.
`CCOC(=O)c1oc2ccc(S(=O)(=O)N(CCc3ccccc3)c3ccccc3N3CCN(C(=O)c4ccccc4Cc4ccccc4)CC3)cc2c1C` [Example M10-134, Ethyl 5-(N-(2-(4-(2-benzylbenzoyl)piperazin-1-yl)phenyl)-N-phenethylsulfamoyl)3-methylbenzofuran-2-carboxylate] was tested, and the IC50 was 50 to 100 µM.
`CCOC(=O)c1oc2ccc(S(=O)(=O)N(CCc3ccccc3)c3ccccc3N3CCN(C(=O)c4c(C)cc(C)cc4C)CC3)cc2c1C` [Example M10-135, Ethyl 5-(N-(2-(4-(2,4,6-trimethylbenzoyl)piperazin-1-yl)phenyl)-N-phenethylsulfamoyl)3-methylbenzofuran-2-carboxylate] showed an IC50 of 50 to 100 µM.
`CCOC(=O)c1oc2ccc(S(=O)(=O)N(CCc3ccccc3)c3ccccc3N3CCN(C(=O)c4ccccc4OC)CC3)cc2c1C` [Example M10-136, Ethyl 5-(N-(2-(4-(2-methoxybenzoyl)piperazin-1-yl)phenyl)-N-phenethylsulfamoyl)3-methylbenzo furan-2-carboxylate] was tested, and the IC50 was 50 to 100 µM.
`CCOC(=O)c1oc2ccc(S(=O)(=O)N(CCc3ccccc3)c3ccccc3N3CCN(C(=O)c4cc(C)ccc4C)CC3)cc2c1C` [Example M10-137, Ethyl 5-(N-(2-(4-(2,5-Dimethylbenzoyl)piperazin-1-yl)phenyl)-N-phenethylsulfamoyl)3-methylbenzofuran-2-carboxylate] showed an IC50 of 50 to 100 µM.
`CCOC(=O)c1oc2ccc(S(=O)(=O)N(CCc3ccccc3)c3ccccc3N3CCN(C(=O)c4ccc(C#Cc5ccccc5)cc4)CC3)cc2c1C` [Example M10-138, Ethyl 5-(N-(2-(4-(4-(phenylethynyl)benzoyl)piperazin-1-yl)phenyl)-N-phenethylsulfamoyl)3-methylbenzofuran-2-carboxylate] was tested, and the IC50 was 50 to 100 µM.
`CCOC(=O)c1oc2ccc(S(=O)(=O)N(CCc3ccccc3)c3ccccc3N3CCN(C(=O)c4ccc(C)s4)CC3)cc2c1C` [Example M10-139, Ethyl 5-(N-(2-(4-(5-methylthiophene-2-formyl)piperazin-1-yl)phenyl)-N-phenethylsulfamoyl)3-methylbenzofuran-2-carboxylate] was tested, and the IC50 was 50 to 100 µM.
Work on `CCOC(=O)c1oc2ccc(S(=O)(=O)N(CCc3ccccc3)c3ccccc3N3CCN(C(=O)c4cc(C)cs4)CC3)cc2c1C` [Example M10-140, Ethyl 5-(N-(2-(4-(4-methylthiophene-2-formyl)piperazin-1-yl)phenyl)-N-phenethylsulfamoyl)3-methylbenzofuran-2-carboxylate] yielded an IC50 of 50 to 100 µM.
With `CCOC(=O)c1oc2ccc(S(=O)(=O)N(CCc3ccccc3)c3ccccc3N3CCN(C(=O)c4sccc4C)CC3)cc2c1C` [Example M10-141, Ethyl 5-(N-(2-(4-(3-methylthiophene-2-formyl)piperazin-1-yl)phenyl)-N-phenethylsulfamoyl)3-methylbenzofuran-2-carboxylate] the IC50 was 50 to 100 µM.
`CCOC(=O)c1oc2ccc(S(=O)(=O)N(CCc3ccccc3)c3ccccc3N3CCN(C(=O)c4ncc[nH]4)CC3)cc2c1C` [Example M10-142, Ethyl 5-(N-(2-(4-(1H-imidazole-2-formyl)piperazin-1-yl)phenyl)-N-phenethylsulfamoyl)3-methylbenzofuran-2-carboxylate] gave an IC50 of 50 to 100 µM.
Compound `CCOC(=O)c1oc2ccc(S(=O)(=O)N(CCc3ccccc3)c3ccccc3N3CCN(C(=O)C4CCCS4)CC3)cc2c1C` (stereo not shown) [Example M10-143, Ethyl 5-(N-(2-(4-(tetrahydrothiophene-2-formyl)piperazin-1-yl)phenyl)-N-phenethylsulfamoyl)3-methylbenzofuran-2-carboxylate] has an IC50 of 50 to 100 µM.
For `CCOC(=O)c1oc2ccc(S(=O)(=O)N(CCc3ccccc3)c3ccccc3N3CCN(C(=O)c4c[nH]cn4)CC3)cc2c1C` [Example M10-144, Ethyl 5-(N-(2-(4-(1H-imidazole-4-carbonyl)piperazin-1-yl)phenyl)-N-phenethylsulfamoyl)3-methylbenzofuran-2-carboxylate], the IC50 was 50 to 100 µM.
Work on `CCOC(=O)c1oc2ccc(S(=O)(=O)N(CCc3ccccc3)c3ccccc3N3CCN(C(=O)C(CC)CC)CC3)cc2c1C` [Example M10-145, Ethyl 5-(N-(2-(4-(2-ethylbutyryl)piperazin-1-yl)phenyl)-N-phenethylsulfamoyl)3-methylbenzofuran-2-carboxylate] yielded an IC50 of 50 to 100 µM.
In the case of `CCOC(=O)c1oc2ccc(S(=O)(=O)N(CCc3ccccc3)c3ccccc3N3CCN(C(=O)c4ccno4)CC3)cc2c1C` [Example M10-146, Ethyl 5-(N-(2-(4-(isoxazole-5-carbonyl)piperazin-1-yl)phenyl)-N-phenethylsulfamoyl)3-methylbenzofuran-2-carboxylate], the IC50 is reported as 50 to 100 µM.
For `CCOC(=O)c1oc2ccc(S(=O)(=O)N(CCc3ccccc3)c3ccccc3N3CCC(NC(=O)c4sccc4Br)CC3)cc2c1C` [Example M10-147, ethyl 5-(N-(2-(4-(3-bromothiophene-2-carboxamido)piperidin-1-yl)phenyl)-N-phenethylsulfamoyl)-3-methylbenzofuran-2-carboxylate], the IC50 was 50 to 100 µM.
`CCOC(=O)c1oc2ccc(S(=O)(=O)N(CCc3ccccc3)c3ccccc3N3CCC4(CCN(C(=O)c5sccc5Br)C4)CC3)cc2c1C` [Example M10-148] showed an IC50 of 50 to 100 µM.
Compound `CCOC(=O)c1oc2ccc(S(=O)(=O)N(CCc3ccccc3)c3ccccc3N3CC4(CCN(C(=O)c5sccc5Br)CC4)C3)cc2c1C` [Example M10-149, Ethyl 5-(N-(2-(7-(3-bromothiophene-2-carbonyl)-2,7-diazaspiro[3.5]nonan-2-yl)phenyl)-N-phenethylsulfamoyl)-3-methylbenzofuran-2-carboxylate] has an IC50 of 50 to 100 µM.
Work on `CCOC(=O)c1oc2ccc(S(=O)(=O)N(CCc3ccccc3)c3ccccc3N3CCC4(CC3)CN(C(=O)c3sccc3Br)C4)cc2c1C` [Example M10-150] yielded an IC50 of 50 to 100 µM.

Source: patent US20240239775A1, “FXR REGULATOR, PREPARATION METHOD THEREFOR, PHARMACEUTICAL COMPOSITION THEREOF AND USE THEREOF” (QINGDAO RUIJI MEDICAL TECHNOLOGY CO., LTD., priority 2021, published 2024)
